Laboratory results published in paper PMC12794274, “Therapeutic potential of Sheng-Xian-Tang in doxorubicin-induced chronic heart failure by regulation of phenylalanine metabolism disruption” (Chinese Medicine, 2026).
pKd: −log10 of the molar value. Where two headings read alike, the source gives them in different places.

Key:
[1] = test system: AML12 cells; experiment: AML12 cell viability (CCK8); format: cell-based
Description: (§1) Mouse hepatocellular cell lines (AML12), purchased from the Shanghai Cell Bank of Chinese Academy of Sciences (Shanghai, China), were cultured in Dulbecco’s Modified Eagle Medium (DMEM) supplemented with 10% fetal bovine serum (FBS) and 2 mM L-glutamine and 1% pyruvate and maintained at 37 °C in a […], 5% CO2 incubator. Cells were seeded at a density of 5 × 10^5 cells/well in 6-well plates. […] Cells’ survival rate was detected by Cell Counting Kit-8 (CCK8) Reagents (Thermo Scientific, Singapore).

[2] = test system: PAH activity in AML12 cells; format: cell-based; settings: BH4 10 μM; timosaponin B-II, neomangiferin, anemarrhenasaponin I 5, 10, 20 μM; timosaponin AIII 0.1, 0.2, 0.5 μM
Description: (§2) Serum biochemical parameters including brain natriuretic peptide (BNP), creatine kinase (CK), lactate dehydrogenase (LDH), alanine aminotransferase (ALT), and aspartate aminotransferase (AST) were measured using commercial ELISA kits (Nanjing Jiancheng Bioengineering Institute, Nanjing, China) according to the manufacturer’s instructions. Superoxide dismutase (SOD), and malondialdehyde (MDA) levels in liver and heart tissues were measured using assay kits from Aifang Biotechnology (Changsha, China). Phenylalanine and tyrosine concentrations in the cell were determined using an ELISA kit from Abmart (Shanghai, China).
as §1

[3] = molecular target: Phenylalanine hydroxylase (PAH) protein (Homo sapiens, UniProt P00439); experiment: Surface Plasmon Resonance (SPR) analysis, Biacore T200; format: binding; settings: PAH immobilized on CM5 chip, read-out: dissociation constant (Kd)
Description: SPR assays were conducted using a Biacore T200 system (GE Healthcare Life Sciences, USA). Phenylalanine hydroxylase (PAH) protein was immobilized on CM5 sensor chips using an amine-coupling kit (BR100050, GE Healthcare) following standard procedures. […] Samples were injected over reference and PAH-immobilized flow cells at a flow rate of 30 μL/min, with 120 s contact time and 120 s dissociation time. Kinetic parameters were calculated using Biacore T200 evaluation software.

[4] = test system: DOX-induced chronic heart failure (CHF) rat model; experiment: Echocardiography (LVEF%, LVFS%) in DOX-induced CHF rats; format: in vivo
Description: Experiment I, 48 rats were randomly divided into six groups: (1) the CON group; (2) the DOX group; (3) the DOX + enalapril (ENP, positive control, 1.8 mg/kg) group; (4) the DOX + SXT at low dose group (4 g/kg); (5) the DOX + SXT at middle dose group (8 g/kg); and […] the DOX + SXT at high dose group (16 g/kg). Except those rats in the CON group, the remaining rats received DOX at a 2.5 mg/kg per injection to a cumulative dose of 15 mg/kg. The dose of SXT for the low-dose group was set at 4 g/kg, based on the minimum human clinical daily dose (48.5 g, Table S2) converted to an equivalent rat dose using body surface area normalization (48.5 g/70 kg × 6.3 ≈ 4.4 g/kg, rounded to 4 g/kg). To evaluate a clear dose–response relationship, the medium and high doses were established at 8 g/kg and 16 g/kg, respectively, corresponding to 2 fold and 4 fold the low dose. This gradient dosing strategy is consistent with the Technical Guidelines for Pharmacodynamic Studies of Traditional Chinese Medicine and the Technical Guidelines for General Pharmacology Studies of Traditional Chinese Medicine and Natural Drugs, and is further supported by our previous study on the effective dose range of SXT in a rat model of doxorubicin-induced chronic heart failure. Heart function was monitored by echocardiography analysis at day 39, and the CHF model was considered to be successfully established when the left ventricular ejection fraction (LVEF%) values were reduced to 50%. Urinary samples were collected at five time points (0, 10, 20, 30, and 39 d), while fecal samples were collected before the rats were euthanized. Subsequently, the rats were anesthetized, and blood samples and heart and liver tissues were collected. All bio-samples were stored at − 80 °C until analysis.
Experiment II was conducted to specifically confirm the exacerbated cardiac abnormality of phenylalanine in the DOX-induced CHF rats. […] Heart function was detected as in the experiment I.
Echocardiographic (ECG) measurements were performed using M-mode tracings and continuous Doppler with a Vevo 2100 system (Visual Sonics, Toronto, ON, Canada). Rats were anesthetized with isoflurane prior to imaging. Cardiac function indices including left ventricular ejection fraction (LVEF%) and left ventricular fractional shortening (LVFS%) were measured and recorded.

[5] = test system: cardiac tissues of DOX-induced CHF rats; experiment: Heart histopathology (H&E, Masson) and TUNEL apoptosis detection; format: in vivo, rat
Description: Cardiac tissues were fixed in 4% paraformaldehyde, embedded in paraffin, and sectioned at 4–5 μm thickness. Hematoxylin and eosin (H&E) staining was performed to assess histopathological changes, while Masson’s trichrome staining was used to evaluate cardiac fibrosis. Apoptosis in cardiac tissues was detected using a TUNEL assay kit (C1088, Beyotime, Shanghai, China).

[6] = test system: DOX-induced CHF rats; experiment: Serum biochemical parameters (BNP, CK, LDH, ALT, AST) by ELISA kits; format: in vivo, rat
Description: as §2, with “manufacturer's” for “manufacturer’s”, “Aifang” left out

[7] = test system: phenylalanine metabolism; experiment: Phenylalanine and tyrosine levels in rat serum, liver and heart tissues (LC/MS); format: in vivo; settings: experiment II, DOX + phenylalanine 280 mg/kg, BH4 14 mg/kg or SXT 16 g/kg
Description: Phenylalanine and tyrosine in the different rat bio-samples were analyzed by LC/MS using an Agilent 1290 Ultra high-performance liquid chromatography (UHPLC) and an Agilent 6460 triple-quadrupole tandem mass spectrometer (QQQ-MS) (Agilent Inc, USA). Data were acquired by using an Agilent Zorbax SB-C18 column (3.0 × 150 mm, 5 μm) as described previously.

[8] = test system: phenylalanine hydroxylase (PAH); experiment: PAH expression in liver and heart (western blotting, immunofluorescence); format: in vivo, rat; settings: experiment II; DOX vs CON, co-treatments vs DOX
Description: Immunofluorescence staining was performed on tissue sections to detect phenylalanine hydroxylase (PAH), prostaglandin-endoperoxide synthase 2 (PTGS2), and reactive oxygen species (ROS). Primary antibodies against PAH and PTGS2 were used, while ROS was detected using the DCFH-DA probe. Nuclei were counterstained with DAPI. Images were captured using a fluorescence microscope.
Protein was extracted from liver or heart tissue samples (30 mg) using lysis buffer. Total protein concentration was determined using a BCA protein assay kit (Thermo Fisher Scientific, USA). Equal amounts of protein from each sample were separated on 10–12% SDS-PAGE gels and transferred to PVDF membranes. Membranes were blocked with quick blocking buffer for 30 min, then incubated with anti-PAH primary antibody (1:1000 dilution) overnight at 4 °C. After washing, membranes were incubated with a secondary antibody for 1 h at 37 °C. Protein bands were visualized using an Odyssey infrared imaging system (JS-1070, Shanghai Peiqing Science & Technology Co., Ltd, China). Band intensities were quantified using ImageJ software.

[9] = test system: DOX-induced CHF rats; experiment: Oxidative stress in heart and liver tissue (SOD, MDA, ROS, PTGS2); format: in vivo, rat; settings: experiment II, co-treatment with DOX
Description: Immunofluorescence staining was performed on tissue sections to detect phenylalanine hydroxylase (PAH), prostaglandin-endoperoxide synthase 2 (PTGS2), and reactive oxygen species (ROS). Primary antibodies against PAH and PTGS2 were used, while ROS was detected using the DCFH-DA probe. Nuclei were counterstained with DAPI. Images were captured using a fluorescence microscope. Serum biochemical parameters including brain natriuretic peptide (BNP), creatine kinase (CK), lactate dehydrogenase (LDH), alanine aminotransferase (ALT), and aspartate aminotransferase (AST) were measured using commercial ELISA kits (Nanjing Jiancheng Bioengineering Institute, Nanjing, China) according to the manufacturer's instructions. Superoxide dismutase (SOD), and malondialdehyde (MDA) levels in liver and heart tissues were measured using assay kits from […] Biotechnology (Changsha, China). Phenylalanine and tyrosine concentrations in the cell were determined using an ELISA kit from Abmart (Shanghai, China).

[10] = test system: heart tissues; experiment: Transmission electron microscopy of heart tissue; format: in vivo, rat; settings: experiment II; DOX alone, co-treatments vs DOX
Description: Freshly excised heart tissues were immediately fixed in 2.5% glutaraldehyde at 4 °C overnight. After washing with 0.1 M cacodylate trihydrate buffer, samples were post-fixed with 1% osmium tetroxide for 1 h. Tissues were then dehydrated through a graded ethanol series, incubated in acetone, and embedded in epoxy resin. Ultrathin sections were mounted on copper grids and imaged using a Hitachi HT7800 transmission electron microscope (Tokyo, Japan).

[11] = Rat body weight; format: in vivo; settings: CHF rats, treatment vs DOX group, experiment I
Description: Experiment I, 48 rats were randomly divided into six groups: (1) the CON group; (2) the DOX group; (3) the DOX + enalapril (ENP, positive control, 1.8 mg/kg) group; (4) the DOX + SXT at low dose group (4 g/kg); (5) the DOX + SXT at middle dose group (8 g/kg); and […] the DOX + SXT at high dose group (16 g/kg). Except those rats in the CON group, the remaining rats received DOX at a 2.5 mg/kg per injection to a cumulative dose of 15 mg/kg. The dose of SXT for the low-dose group was set at 4 g/kg, based on the minimum human clinical daily dose (48.5 g, Table S2) converted to an equivalent rat dose using body surface area normalization (48.5 g/70 kg × 6.3 ≈ 4.4 g/kg, rounded to 4 g/kg). To evaluate a clear dose–response relationship, the medium and high doses were established at 8 g/kg and 16 g/kg, respectively, corresponding to 2 fold and 4 fold the low dose. […] Heart function was monitored by echocardiography analysis at day 39, and the CHF model was considered to be successfully established when the left ventricular ejection fraction (LVEF%) values were reduced to 50%. […]

[12] = experiment II, co-treatment vs DOX group

Chain of Phenylalanine hydroxylase (PAH) protein (P00439 whole entry): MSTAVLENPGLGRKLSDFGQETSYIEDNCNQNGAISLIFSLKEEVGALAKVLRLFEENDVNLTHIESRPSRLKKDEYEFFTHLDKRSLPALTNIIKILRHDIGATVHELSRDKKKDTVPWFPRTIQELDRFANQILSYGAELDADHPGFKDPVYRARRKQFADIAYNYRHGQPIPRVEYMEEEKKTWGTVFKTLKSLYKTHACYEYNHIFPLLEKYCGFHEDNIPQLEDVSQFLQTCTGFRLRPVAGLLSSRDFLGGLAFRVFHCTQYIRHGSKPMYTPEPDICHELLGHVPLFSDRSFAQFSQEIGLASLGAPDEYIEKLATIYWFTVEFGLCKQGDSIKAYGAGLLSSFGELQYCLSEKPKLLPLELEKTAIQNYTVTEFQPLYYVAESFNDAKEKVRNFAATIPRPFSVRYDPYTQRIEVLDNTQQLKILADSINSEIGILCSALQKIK

O=c1c(-c2ccc(O)cc2)coc2cc(O)ccc12 [Daidzein]
non-cytoxic concentration ([1]; mouse): 5 to 20 µM

C[C@H]1CC[C@@]2(OC1)O[C@H]1C[C@H]3[C@@H]4CC[C@@H]5C[C@@H](O[C@@H]6O[C@H](CO)[C@H](O)[C@H](O)[C@H]6O[C@@H]6O[C@H](CO)[C@@H](O)[C@H](O)[C@H]6O)CC[C@]5(C)[C@H]4CC[C@]3(C)[C@H]1[C@@H]2C [Timosaponin A-III]
non-cytoxic concentration ([1]; mouse): 0.1 to 0.5 µM | phenylalanine levels in AML12 cells increased by DOX [2]: significantly reduce | pKd [3]: > 5.00

O=C(O)CCCCCCCC(=O)O [Azelaic acid]
non-cytoxic concentration ([1]; mouse): 5 to 20 µM

C[C@H](O)[C@H](O)[C@H]1CNc2nc(N)[nH]c(=O)c2N1 [BH4, tetrahydrobiopterin]
LVEF and LVFS / DOX-induced cardiac dysfunction ([4]; experiment II, DOX + Phe 280 mg/kg, BH4 14 mg/kg or SXT 16 g/kg vs DOX group): partially alleviated | DOX-induced cardiac injury and collagen accumulation (H&E and Masson) [5, 12]: ameliorated | DOX-induced increases in serum levels of BNP, CK, LDH, ALT and AST [6, 12]: significantly inhibited | serum phenylalanine concentration [7]: 46.9791 µM | PAH expression in heart tissue [8]: decreased | PAH expression in liver tissue [8]: increased | ROS production and PTGS2 expression in the heart [9]: effectively attenuated | mitochondrial ultrastructure of heart (electron microscopy) [10]: reversed | non-cytoxic concentration ([1]; mouse): 5 to 20 µM | phenylalanine levels in AML12 cells increased by DOX [2]: markedly decreased | pKd [3]: 4.97

CC(C)CCC1(O)O[C@H]2[C@H](O)[C@H]3[C@@H]4CC[C@@H]5C[C@@H](O[C@@H]6O[C@H](CO)[C@H](O)[C@H](O)[C@H]6O[C@@H]6O[C@H](CO)[C@@H](O)[C@H](O)[C@H]6O)CC[C@]5(C)[C@H]4CC[C@]3(C)[C@H]2[C@@H]1C (stereo partly drawn) [Anemarrhenasaponin I]
non-cytoxic concentration ([1]; AML12 cells): 5 to 20 µM | phenylalanine levels in AML12 cells increased by DOX [2]: significantly reduce | pKd [3]: > 5.00

CCOC(=O)[C@H](CCc1ccccc1)N[C@@H](C)C(=O)N1CCC[C@H]1C(=O)O [ENP, Enalapril]
LVEF and LVFS ([4]; DOX + ENP 1.8 mg/kg vs DOX group, p < 0.001): significantly higher | body weight [11]: partially restored | TUNEL-positive cardiomyocytes ([5]; treated groups vs DOX group): reduction | serum ALT and AST levels ([6]; treated groups vs DOX group, experiment I): markedly reduced

COc1ccc(-c2coc3cc(O[C@@H]4O[C@H](CO)[C@@H](O)[C@H](O)[C@H]4O)ccc3c2=O)cc1O [Calycosin-7-O-β-D-glucoside]
non-cytoxic concentration [1]: 5 to 20 µM
